Here are results for 17 molecules from patent US20250100996A1, “HETEROCYCLOALKYL AND HETEROARYL COMPOUNDS AND PHARMACEUTICAL COMPOSITIONS THAT MODULATE IKZF2” (Plexium, Inc., priority 2021, published 2025).

A word on the DC50: it is the concentration at which degradation of the target reaches its halfway point. By EC50 is commonly meant the concentration at which the effect is half-maximal. In general, inhibition refers to the relative decrease from the control value, in per cent. Read a high inhibition as a response far below the control.

The target in assay [1] is T1, IKZF3 (Aiolos) (Homo sapiens, UniProt Q9UKT9).
T1 construct: Leu-Asp junction (codons ctcgac before the linker); mScarlet (behind P2A) (C, cleaved yes); expressed in transfected cells
Briefly: IKZF3 reporter degradation assay (HEK 293T IKZF3-mNeonGreen reporter cell line). The following applies: HEK 293T IKZF3-mNeonGreen reporter, 24 hours incubation. The class given is cell-based. In short, it runs like this: (§1)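 Cells were seeded overnight and then dosed with DMSO dilutions of compound. After 24 h, the plates were imaged live in the FITC and TRITC channels. The fraction of reporter-positive cells was plotted and fitted to a four-parameter logistic curve to give DC50.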

The target in assay [2] is T2, IKZF1 (Ikaros) (Homo sapiens, UniProt Q13422).
T2 construct: mScarlet (behind P2A) (C, cleaved yes); expressed in transfected cells
In words: IKZF1 reporter degradation assay (HEK 293T IKZF1-mNeonGreen reporter cell line). The following applies: HEK 293T IKZF1-mNeonGreen reporter, 24 hours incubation. The class given is cell-based. In short, it runs like this:
as §1

Assay [3] addresses T3, human E3 ligase component cereblon (CRBN) (Homo sapiens, UniProt Q96SW2).
T3 construct: host or cells: HEK293T
In words: Cereblon (CRBN) target engagement, NanoBRET TE Intracellular E3 Ligase Assay in transfected HEK-293T cells. The following applies: read-out: CRBN Binding EC50. The method in brief: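 Tracer displacement was read as the 610/450 nm BRET signal after 2 h at 37° C with an 11-point dilution series, typically 10 μM to 100 pM. Live HEK-293T cells expressed NanoLuc fused N-terminal to human CRBN together with DDB1. IC50 was fitted with a four-parameter logistic model.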
In general terms: Bioluminescence resonance energy transfer reports proximity on the nanometre scale.

For assay [4], the target named is T4, IKZF2 (Helios) (Homo sapiens, UniProt Q96SW2+Q9UKS7).
T4 construct: Leu-Asp junction (codons ctcgac before the linker); mScarlet (behind P2A) (C, cleaved yes); expressed in transfected cells
Briefly: IKZF2 reporter degradation assay (HEK 293T IKZF2-mNeonGreen reporter cell line). It counts as cell-based. The following applies: HEK-293T, 24 h, @ 1 μM, HEK 293T IKZF2-mNeonGreen reporter, 24 hours incubation. In short, it runs like this:
as §1

In assay [5] the target is T5, IKZF2 (Helios) (Homo sapiens, UniProt Q9UKS7).
T5 construct: Leu-Asp junction (codons ctcgac before the linker); mScarlet (behind P2A) (C, cleaved yes); expressed in transfected cells
The assay is described as above. To be noted: HEK 293T IKZF2-mNeonGreen reporter, 24 hours incubation. It counts as cell-based. The method in brief: as §1

SMILES strings stand for the structures.

T4 sequence (Q9UKS7 whole entry): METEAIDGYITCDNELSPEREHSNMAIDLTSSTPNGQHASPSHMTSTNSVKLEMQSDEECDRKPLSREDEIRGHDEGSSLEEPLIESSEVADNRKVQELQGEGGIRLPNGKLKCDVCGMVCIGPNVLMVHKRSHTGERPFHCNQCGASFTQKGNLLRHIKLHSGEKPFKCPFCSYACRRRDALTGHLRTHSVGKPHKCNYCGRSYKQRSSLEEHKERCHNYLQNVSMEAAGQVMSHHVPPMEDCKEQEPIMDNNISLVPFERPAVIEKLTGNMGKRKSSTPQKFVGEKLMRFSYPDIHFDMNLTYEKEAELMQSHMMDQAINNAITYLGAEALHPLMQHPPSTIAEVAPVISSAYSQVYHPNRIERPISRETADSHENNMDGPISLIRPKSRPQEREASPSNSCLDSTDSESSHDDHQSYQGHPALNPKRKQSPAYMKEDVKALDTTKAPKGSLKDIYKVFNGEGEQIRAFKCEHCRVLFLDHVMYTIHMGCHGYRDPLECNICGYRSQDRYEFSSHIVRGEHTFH
T4 sequence (Q96SW2 whole entry): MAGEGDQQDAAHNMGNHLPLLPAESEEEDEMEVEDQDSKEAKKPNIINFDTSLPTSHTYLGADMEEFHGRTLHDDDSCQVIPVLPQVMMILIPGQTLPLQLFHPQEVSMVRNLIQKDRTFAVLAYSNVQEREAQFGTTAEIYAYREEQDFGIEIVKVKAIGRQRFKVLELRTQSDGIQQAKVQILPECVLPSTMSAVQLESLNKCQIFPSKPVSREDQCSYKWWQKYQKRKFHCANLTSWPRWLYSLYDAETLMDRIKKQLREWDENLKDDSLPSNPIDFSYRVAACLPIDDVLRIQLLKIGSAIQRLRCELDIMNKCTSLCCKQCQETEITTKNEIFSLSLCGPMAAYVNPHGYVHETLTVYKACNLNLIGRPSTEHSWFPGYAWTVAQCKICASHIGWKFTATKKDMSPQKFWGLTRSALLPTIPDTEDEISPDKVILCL
T4 sequence (Q16531 whole entry partner): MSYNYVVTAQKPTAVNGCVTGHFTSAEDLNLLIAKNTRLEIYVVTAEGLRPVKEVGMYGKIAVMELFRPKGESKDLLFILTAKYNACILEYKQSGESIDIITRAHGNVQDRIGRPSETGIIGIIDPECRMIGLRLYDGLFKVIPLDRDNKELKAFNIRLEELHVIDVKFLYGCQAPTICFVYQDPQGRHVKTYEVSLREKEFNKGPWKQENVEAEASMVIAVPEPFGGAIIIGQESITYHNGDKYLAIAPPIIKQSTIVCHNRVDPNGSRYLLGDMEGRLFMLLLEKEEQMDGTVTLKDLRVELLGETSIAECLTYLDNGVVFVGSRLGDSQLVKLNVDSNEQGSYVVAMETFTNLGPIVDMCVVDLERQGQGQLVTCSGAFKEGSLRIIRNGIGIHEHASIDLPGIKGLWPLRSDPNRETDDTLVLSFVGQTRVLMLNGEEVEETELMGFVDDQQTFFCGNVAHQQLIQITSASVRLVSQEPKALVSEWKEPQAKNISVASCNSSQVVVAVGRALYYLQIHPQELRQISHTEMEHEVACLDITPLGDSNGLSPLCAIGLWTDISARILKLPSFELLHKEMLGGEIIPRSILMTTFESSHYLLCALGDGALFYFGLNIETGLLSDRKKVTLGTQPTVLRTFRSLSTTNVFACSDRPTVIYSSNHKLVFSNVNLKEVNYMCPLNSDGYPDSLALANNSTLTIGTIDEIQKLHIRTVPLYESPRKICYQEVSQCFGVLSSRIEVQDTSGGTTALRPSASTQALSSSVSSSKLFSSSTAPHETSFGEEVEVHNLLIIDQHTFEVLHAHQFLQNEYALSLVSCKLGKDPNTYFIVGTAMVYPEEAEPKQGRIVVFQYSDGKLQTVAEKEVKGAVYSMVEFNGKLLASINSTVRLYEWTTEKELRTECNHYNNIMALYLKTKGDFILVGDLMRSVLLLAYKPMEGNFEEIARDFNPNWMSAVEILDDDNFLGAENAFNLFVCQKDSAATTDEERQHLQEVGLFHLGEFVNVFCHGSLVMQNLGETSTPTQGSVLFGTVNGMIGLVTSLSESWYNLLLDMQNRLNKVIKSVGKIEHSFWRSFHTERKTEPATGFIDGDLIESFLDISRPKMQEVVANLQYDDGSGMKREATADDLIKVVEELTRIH
T5 sequence (Q9UKS7 whole entry): as the sequence (Q9UKS7 whole entry) above
T5 sequence (Q96SW2 whole entry, further chain): as the sequence (Q96SW2 whole entry) above
T5 sequence (Q16531 whole entry partner): as the sequence (Q16531 whole entry partner) above
T3 sequence (Q96SW2 whole entry): as the sequence (Q96SW2 whole entry) above
T3 sequence (Q16531 whole entry partner): as the sequence (Q16531 whole entry partner) above
T2 sequence (Q96SW2 whole entry partner): as the sequence (Q96SW2 whole entry) above
T2 sequence (Q16531 whole entry partner): as the sequence (Q16531 whole entry partner) above
T2 sequence (Q13422 whole entry): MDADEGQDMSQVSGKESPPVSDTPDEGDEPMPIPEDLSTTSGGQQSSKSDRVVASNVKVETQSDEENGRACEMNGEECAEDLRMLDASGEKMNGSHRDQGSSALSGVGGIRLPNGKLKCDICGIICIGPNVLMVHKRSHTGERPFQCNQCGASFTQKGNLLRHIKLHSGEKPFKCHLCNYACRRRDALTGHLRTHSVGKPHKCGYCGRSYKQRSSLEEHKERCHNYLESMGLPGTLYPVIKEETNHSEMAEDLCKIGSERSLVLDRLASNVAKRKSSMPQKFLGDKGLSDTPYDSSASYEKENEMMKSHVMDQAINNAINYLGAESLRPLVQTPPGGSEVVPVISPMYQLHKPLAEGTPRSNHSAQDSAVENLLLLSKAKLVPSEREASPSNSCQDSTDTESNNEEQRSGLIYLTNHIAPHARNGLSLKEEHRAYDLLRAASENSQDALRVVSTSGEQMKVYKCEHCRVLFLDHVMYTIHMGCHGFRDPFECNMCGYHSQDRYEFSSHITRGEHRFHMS
T1 sequence (Q96SW2 whole entry partner): as the sequence (Q96SW2 whole entry) above
T1 sequence (Q16531 whole entry partner): as the sequence (Q16531 whole entry partner) above
T1 sequence (Q9UKT9 whole entry): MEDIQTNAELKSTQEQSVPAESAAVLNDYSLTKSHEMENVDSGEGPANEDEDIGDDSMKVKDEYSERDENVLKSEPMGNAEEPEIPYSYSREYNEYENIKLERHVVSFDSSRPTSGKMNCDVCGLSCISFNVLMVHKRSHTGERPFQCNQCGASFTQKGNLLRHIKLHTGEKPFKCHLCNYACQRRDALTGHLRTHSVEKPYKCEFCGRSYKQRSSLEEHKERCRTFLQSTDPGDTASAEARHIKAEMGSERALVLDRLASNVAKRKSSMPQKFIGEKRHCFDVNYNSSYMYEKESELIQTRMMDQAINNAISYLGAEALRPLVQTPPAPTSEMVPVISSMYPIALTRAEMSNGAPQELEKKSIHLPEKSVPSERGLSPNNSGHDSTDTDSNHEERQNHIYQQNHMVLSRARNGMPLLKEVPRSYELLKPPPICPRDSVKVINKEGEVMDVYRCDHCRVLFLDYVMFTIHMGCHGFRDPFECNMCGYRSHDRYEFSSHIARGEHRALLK

Regarding `Cc1cnc(C2CN([C@H]3CCCC[C@H]3Oc3ccc4c(c3)CN(C3CCC(=O)NC3=O)C4=O)C2)o1` (mixture of isomers) [Compound 174-B, Rac-3-(5-(((cis)-2-(3-(5-methyloxazol-2-yl)azetidin-1-yl)cyclohexyl)oxy)-1-oxoisoindolin-2-yl)piperidine-2,6-dione], the figures for the DC50 in assay [1], in assay [2] and in assay [5] were greater than 30000 nM, greater than 30000 nM and 28 nM, respectively. Also, the EC50 in assay [3] was 36 nM. The inhibition at 1 µM in assay [4] was determined as 70.3%.

On to `O=C1CCC(N2Cc3cc(O[C@H]4CCCC[C@@H]4N4CC(c5ccncc5Cl)C4)ccc3C2=O)C(=O)N1` (mixture of isomers) [Compound 173-B, Rac-3-(5-(((trans)-2-(3-(3-chloropyridin-4-yl)azetidin-1-yl)cyclohexyl)oxy)-1-oxoisoindolin-2-yl)piperidine-2,6-dione], for which the 50% degradation concentration (DC50) in assay [1] was greater than 30000 nM; in assay [2], greater than 30000 nM; in assay [5], 31 nM. Also, the EC50 in assay [3] worked out at 52 nM. Moreover, at 1 µM the inhibition in assay [4] was 66.7%.

Take `O=C1CCC(N2Cc3cc(O[C@H]4CCCC[C@@H]4N4CC(c5ccc6[nH]ncc6c5)C4)ccc3C2=O)C(=O)N1` (stereo partly drawn) [Compound 204-B, 3-(5-(((1S,2S)-2-(3-(1H-indazol-5-yl)azetidin-1-yl)cyclohexyl)oxy)-1-oxoisoindolin-2-yl)piperidine-2,6-dione]: the DC50 in assay [1] was greater than 30000 nM; in assay [2], greater than 30000 nM; in assay [5], 22 nM. Besides, the EC50 in assay [3] is 37 nM. In assay [4], this molecule had an inhibition at 1 µM of 75.4%.

Consider `O=C1CCC(N2Cc3cc(OC4CCC[C@@H]4N4CC(c5cncnc5)C4)ccc3C2=O)C(=O)N1` (mixture of isomers) [Compound 196-B, Rac-3-(1-oxo-5-(((cis)-2-(3-(pyrimidin-5-yl)azetidin-1-yl)cyclopentyl)oxy)isoindolin-2-yl)piperidine-2,6-dione], for which the results for the DC50 in assay [1], in assay [2] and in assay [5] were greater than 30000 nM, greater than 30000 nM and 601 nM, respectively. Moreover, the EC50 in assay [3] amounted to 214 nM. This molecule also came in with an inhibition at 1 µM in assay [4] of 17.6%.

As for `Cc1cnc(C2CN([C@H]3CCCC3Oc3ccc4c(c3)CN(C3CCC(=O)NC3=O)C4=O)C2)o1` (mixture of isomers) [Compound 161-B, Rac-3-(5-(((cis)-2-(3-(5-methyloxazol-2-yl)azetidin-1-yl)cyclopentyl)oxy)-1-oxoisoindolin-2-yl)piperidine-2,6-dione], the results for the DC50 in assay [1], in assay [2] and in assay [5] were greater than 30000 nM, greater than 30000 nM and 138 nM, respectively. For the same molecule, the EC50 in assay [3] stood at 120 nM. Besides, 1 µM produced 49.7% inhibition in assay [4].

`Cc1nccc(C2CN(C3CCCCC3Oc3ccc4c(c3)CN(C3CCC(=O)NC3=O)C4=O)C2)n1` (stereo not shown) [Compound 190-B, 3-(5-((2-(3-(2-methylpyrimidin-4-yl)azetidin-1-yl)cyclohexyl)oxy)-1-oxoisoindolin-2-yl)piperidine-2,6-dione]: the DC50 in assay [1] was greater than 30000 nM; in assay [2] it was greater than 30000 nM; in assay [5], 71 nM. Moreover, the EC50 in assay [3] was determined as 44 nM. At 1 µM the inhibition in assay [4] was 74.3%.

Turning to `O=C1CCC(N2Cc3cc(O[C@@H]4CCCC[C@@H]4N4CC(c5ccncc5Cl)C4)ccc3C2=O)C(=O)N1` (mixture of isomers) [Compound 162-B, Rac-3-(5-(((cis)-2-(3-(3-chloropyridin-4-yl)azetidin-1-yl)cyclohexyl)oxy)-1-oxoisoindolin-2-yl)piperidine-2,6-dione], the figures for the DC50 in assay [1], in assay [2] and in assay [5] were greater than 30000 nM, greater than 30000 nM and 22 nM, respectively. The EC50 in assay [3] was 59 nM. In assay [4], the inhibition at 1 µM worked out at 70.4%.

`O=C1CCC(N2Cc3cc(O[C@@H]4CCCC[C@@H]4N4CC(c5ccc(C(F)(F)F)cn5)C4)ccc3C2=O)C(=O)N1` (mixture of isomers) [Compound 182-B, Rac-3-(1-oxo-5-(((cis)-2-(3-(5-(trifluoromethyl)pyridin-2-yl)azetidin-1-yl)cyclohexyl)oxy)isoindolin-2-yl)piperidine-2,6-dione]: the values for the DC50 in assay [1], in assay [2] and in assay [5] were greater than 30000 nM, greater than 30000 nM and 5 nM, respectively. Besides, in assay [3], the EC50 came to 9 nM. This molecule gave an inhibition at 1 µM in assay [4] of 78.3%.

For `O=C1CCC(N2Cc3cc(OC4CCC[C@@H]4N4CC(c5ccncc5)C4)ccc3C2=O)C(=O)N1` (mixture of isomers) [Compound 205-B, Rac-3-(1-oxo-5-(((cis)-2-(3-(pyridin-4-yl)azetidin-1-yl)cyclopentyl)oxy)isoindolin-2-yl)piperidine-2,6-dione], the DC50 in assay [1] is greater than 30000 nM; in assay [2], greater than 30000 nM; in assay [5], 219 nM. In assay [3], the EC50 was found to be 46 nM. Also, the inhibition at 1 µM in assay [4] turned out to be 40.6%.

`O=C1CCC(N2Cc3cc(O[C@@H]4CCCC[C@@H]4N4CC(c5ncc(C(F)(F)F)cn5)C4)ccc3C2=O)C(=O)N1` (mixture of isomers) [Compound 186-B, Rac-3-(1-oxo-5-(((cis)-2-(3-(5-(trifluoromethyl)pyrimidin-2-yl)azetidin-1-yl)cyclohexyl)oxy)isoindolin-2-yl)piperidine-2,6-dione]: the DC50 in assay [1] is greater than 30000 nM; in assay [2], greater than 30000 nM; in assay [5], 5 nM. Also, the EC50 in assay [3] worked out at 6 nM. This molecule gave an inhibition at 1 µM in assay [4] of 79.7%.

For `O=C1CCC(N2Cc3cc(O[C@H]4CCCC[C@@H]4N4CC(c5ccc6c(c5)OCCO6)C4)ccc3C2=O)C(=O)N1` (stereo partly drawn) [Compound 58-A, 3-(5-(((1S,2S)-2-(3-(2,3-dihydrobenzo[b][1,4]dioxin-6-yl)azetidin-1-yl)cyclohexyl)oxy)-1-oxoisoindolin-2-yl)piperidine-2,6-dione], the DC50 is greater than 30000 nM in assay [1], greater than 30000 nM in assay [2] and 5 nM in assay [5]. Further, the EC50 in assay [3] was 3 nM. The inhibition at 1 µM in assay [4] worked out at 64.5%.

Consider `Cc1cnccc1C1CN(C2CCCCC2Oc2ccc3c(c2)CN(C2CCC(=O)NC2=O)C3=O)C1` (stereo not shown) [Compound 198-B, 3-(5-((2-(3-(3-methylpyridin-4-yl)azetidin-1-yl)cyclohexyl)oxy)-1-oxoisoindolin-2-yl)piperidine-2,6-dione], for which the DC50 in assay [1] was greater than 30000 nM; in assay [2] it was greater than 30000 nM; in assay [5] it was 11 nM. For the same molecule, in assay [3], the EC50 was 10 nM. Moreover, 1 µM produced 72.3% inhibition in assay [4].

As for `O=C1CCC(N2Cc3cc(O[C@H]4CCCC[C@@H]4N4CC(c5ncc(C(F)(F)F)cn5)C4)ccc3C2=O)C(=O)N1` (mixture of isomers) [Compound 187-B, Rac-3-(1-oxo-5-(((trans)-2-(3-(5-(trifluoromethyl)pyrimidin-2-yl)azetidin-1-yl)cyclohexyl)oxy)isoindolin-2-yl)piperidine-2,6-dione], the DC50 in assay [1] was greater than 30000 nM; in assay [2] it was greater than 30000 nM; in assay [5], 85 nM. Besides, the EC50 in assay [3] worked out at 6 nM. Also, the inhibition at 1 µM in assay [4] amounted to 27.4%.

For the molecule `COc1ccc(C2CN([C@H]3CCCC3Oc3ccc4c(c3)CN(C3CCC(=O)NC3=O)C4=O)C2)cn1` (mixture of isomers) [Compound 201-B, Rac-3-(5-(((cis)-2-(3-(6-methoxypyridin-3-yl)azetidin-1-yl)cyclopentyl)oxy)-1-oxoisoindolin-2-yl)piperidine-2,6-dione], the DC50 in assay [1] is greater than 30000 nM; in assay [2] it was greater than 30000 nM; in assay [5], 78 nM. The concentration for a half-maximal effect (EC50) in assay [3] amounted to 36 nM. At 1 µM the inhibition in assay [4] was 62.7%.

On to `O=C1CCC(N2Cc3cc(OC4CCCC4N4CC(c5cnc6ccccc6n5)C4)ccc3C2=O)C(=O)N1` (stereo not shown) [Compound 203-B, 3-(1-oxo-5-((2-(3-(quinoxalin-2-yl)azetidin-1-yl)cyclopentyl)oxy)isoindolin-2-yl)piperidine-2,6-dione], for which the DC50 is greater than 30000 nM in assay [1], greater than 30000 nM in assay [2] and 130 nM in assay [5]. Further, in assay [3], the EC50 is 20 nM. In addition, the inhibition at 1 µM in assay [4] came out at 25.1%.

`O=C1CCC(N2Cc3cc(OC4CCCC4N4CC(c5ccc6cccnc6c5)C4)ccc3C2=O)C(=O)N1` (stereo not shown) [Compound 169-B, 3-(1-oxo-5-((2-(3-(quinolin-7-yl)azetidin-1-yl)cyclopentyl)oxy)isoindolin-2-yl)piperidine-2,6-dione]: the DC50 was greater than 30000 nM in assay [1], greater than 30000 nM in assay [2] and 46 nM in assay [5]. The EC50 in assay [3] amounted to 13 nM. The inhibition at 1 µM in assay [4] stood at 56.3%.

Consider `O=C1CCC(N2Cc3cc(OC4CCCCC4N4CC(c5ccnc6[nH]ccc56)C4)ccc3C2=O)C(=O)N1` (stereo not shown) [Compound 199-B, 3-(5-((2-(3-(1H-pyrrolo[2,3-b]pyridin-4-yl)azetidin-1-yl)cyclohexyl)oxy)-1-oxoisoindolin-2-yl)piperidine-2,6-dione], for which the DC50 in assay [1] is greater than 30000 nM; in assay [2] it was greater than 30000 nM; in assay [5], 14 nM. Besides, the EC50 in assay [3] is 21 nM. This molecule gave an inhibition at 1 µM in assay [4] of 75%.
